“And” between values parts separate entries of the source, which are not always exact repeats. Identical values can stand only once.
Target: full length XPA protein (Homo sapiens, UniProt P23025)
Assay: biochemical
Settings: IC50 (μM), EMSA, 32P labeled 30 bp duplex DNA containing a single 1,2 dGpG cisplatin adduct, several values in a cell = separate determinations
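Also: XPA expressed in Sf9 cells, preincubated with compound on ice before adding DNA, complex resolved on native polyacrylamide gel at 4 °C, PhosphorImager band intensity, binding inhibition versus DMSO.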

Chain of full length XPA protein (P23025 whole entry): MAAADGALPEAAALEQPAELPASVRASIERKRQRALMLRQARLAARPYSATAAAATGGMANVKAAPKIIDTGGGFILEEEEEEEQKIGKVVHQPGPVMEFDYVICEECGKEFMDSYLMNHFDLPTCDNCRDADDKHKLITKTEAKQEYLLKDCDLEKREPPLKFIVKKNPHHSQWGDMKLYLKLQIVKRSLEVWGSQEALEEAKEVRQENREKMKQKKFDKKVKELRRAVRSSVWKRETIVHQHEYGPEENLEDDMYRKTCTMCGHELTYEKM
Protocol: Purified XPA (lanes 2-18) was mixed with DMSO (Lane 2, C) control or the indicated compound at a concentration of 50 μM (Lanes 3-18). ^32P labeled ds-platinum damaged DNA was added and incubation continued for 30 minutes on ice. The products were separated on a 6% native gel by electrophoresis at 4° C. Products were detected and quantified by PhosphorImager analysis.
EMSA was carried out using previously described procedure with the following modification. Reactions were performed in volume of 20 μL, containing a ^32P labeled 30 bp duplex DNA containing a single 1,2 dGpG cisplatin adduct. Compounds were pre-incubated on ice with the indicated amount of XPA and products separated by electrophoresis on a non-denaturing 6% polyacrylamide gel. Gels were cooled, loaded and electrophoresis performed at 4° C. Gels were used to expose a Phosphorlmager screen and band intensity determined and % binding and inhibition calculated as we have previously described.

| SMILES | IC50 |
| --- | --- |
| CCOC(=O)c1cccc(N2N=C(C)/C(=C/c3ccc(-c4ccc(Cl)c(C(=O)O)c4)o3)C2=O)c1 [Compound 31a, (Z)-2-Chloro-5-(5-((1-(3-(ethoxycarbonyl)phenyl)-3-methyl-5-oxo-1H-pyrazol-4(5H)-ylidene)methyl)furan-2-yl)benzoic acid] | > 25 µM |
| CC1=NN(c2cccc(C(=O)O)c2)C(=O)C1=Cc1ccc(-c2ccc(Cl)c(C(=O)NCC3CCCCC3)c2)o1 (mixture of isomers) [NG-04-274, 3-(4-((5-(4-chloro-3-((cyclohexylmethyl)carbamoyl)phenyl)furan-2-yl)methylene)-3-methyl-5-oxo-4,5-dihydro-1H-pyrazol-1-yl)benzoic acid] | 35 µM |
| CCOC(=O)c1cccc(N2N=C(C(F)(F)F)C(=Cc3ccc(-c4ccc(Cl)c(C(=O)Nc5cccc(OC)c5)c4)o3)C2=O)c1 (mixture of isomers) [NG-04-311, ethyl 3-(4-((5-(4-chloro-3-((3-methoxyphenyl)carbamoyl)phenyl)furan-2-yl)methylene)-5-oxo-3-(trifluoromethyl)-4,5-dihydro-1H-pyrazol-1-yl)benzoate] | > 50 µM |
| CC1=NN(c2cccc(C(=O)O)c2)C(=O)/C1=C\c1ccc(-c2ccc(Cl)c(C(=O)NC3CCOCC3)c2)o1 [Compound 34g, (Z)-3-(4-((5-(4-Chloro-3-((tetrahydro-2H-pyran-4-yl)carbamoyl)phenyl)furan-2-yl)methylene)-3-methyl-5-oxo-4,5-dihydro-1H-pyrazol-1-yl)benzoic acid] | 40 µM |
| COc1cccc(NC(=O)c2cc(-c3ccc(/C=C4\C(=O)N(c5cccc(C#N)c5)N=C4C)o3)ccc2Cl)c1 [NG-03-193, (Z)-2-chloro-5-(5-((1-(3-cyanophenyl)-3-methyl-5-oxo-1,5-dihydro-4H-pyrazol-4-ylidene)methyl)furan-2-yl)-N-(3-methoxyphenyl)benzamide] | > 25 µM |
| COc1cccc(NC(=O)c2ccc(/C=C3\C(=O)N(c4cccc(C(=O)O)c4)N=C3C)o2)c1 [NG-02-162/ NG-02-162C, (Z)-3-(4-((5-((3-methoxyphenyl)carbamoyl)furan-2-yl)methylene)-3-methyl-5-oxo-4,5-dihydro-1H-pyrazol-1-yl)benzoic acid] | 35 µM |
| CC1=NN(c2ccc(C(=O)O)cc2)C(=O)/C1=C\c1ccc(-c2ccc(Cl)c(C(=O)O)c2)s1 [NG-03-234, (Z)-5-(5-((1-(4-Carboxyphenyl)-3-methyl-5-oxo-1,5-dihydro-4H-pyrazol-4-ylidene)methyl)thiophen-2-yl)-2-chlorobenzoic acid] | 12 µM |
| C=CCCCc1cccc(-c2ccc(/C=C3/C=NN(c4cccc(C(=O)O)c4)C3=O)o2)c1 [Compound 2922] | 3 µM |
| O=C(O)c1cccc(N2N=C(C(F)(F)F)/C(=C/c3ccc(-c4ccc(Cl)c(C(=O)NCC5CC5)c4)o3)C2=O)c1 [NG-04-304, 3-(4-((5-(4-chloro-3-((cyclopropylmethyl)carbamoyl)phenyl)furan-2-yl)methylene)-5-oxo-3-(trifluoromethyl)-4,5-dihydro-1H-pyrazol-1-yl)benzoic acid] | > 50 µM |
| CC1=NN(c2cccc(C(=O)O)c2)C(=O)/C1=C\c1ccc(-c2cccc(C(=O)OC(C)C)c2)o1 [Compound 3125] | 3 µM |
| CC1=NN(c2cccc(C(=O)O)c2)C(=O)/C1=C\c1ccc(-c2ccc(Cl)c(C(=O)COc3ccccc3Cl)c2)o1 [Compound 2249] | 2.5 µM |
| COc1cccc(NC(=O)c2cc(-c3ccc(/C=C4\C(=O)N(c5cccc(C(=O)O)c5)N=C4C(F)(F)F)o3)ccc2Cl)c1 [NG-04-312, 3-(4-((5-(4-chloro-3-((3-methoxyphenyl)carbamoyl)phenyl)furan-2-yl)methylene)-5-oxo-3-(trifluoromethyl)-4,5-dihydro-1H-pyrazol-1-yl)benzoic acid] | > 50 µM |
| CC1=NN(c2cccc(C(=O)O)c2)C(=O)/C1=C\c1ccc(-c2ccc(Cl)c(C(=O)O)c2)s1 [NG-03-224, (Z)-5-(5-((1-(3-Carboxyphenyl)-3-methyl-5-oxo-1,5-dihydro-4H-pyrazol-4-ylidene)methyl)thiophen-2-yl)-2-chlorobenzoic acid] | 30 µM |
| CCOC(=O)c1cccc(N2N=C(C(F)(F)F)/C(=C/c3ccc(-c4ccc(Cl)c(C(=O)O)c4)o3)C2=O)c1 [NG-04-300, 2-chloro-5-(5-((1-(3-(ethoxycarbonyl)phenyl)-5-oxo-3-(trifluoromethyl)-1,5-dihydro-4H-pyrazol-4-ylidene)methyl)furan-2-yl)benzoic acid] | 40 µM |
| COc1cccc(NC(=O)c2cc(-c3ccc(/C=C4\C(=O)N(c5cccc(C(=O)O)c5)N=C4C)s3)ccc2Cl)c1 [NG-03-203, (Z)-3-(4-((5-(4-chloro-3-((3-methoxyphenyl)carbamoyl)phenyl)thiophen-2-yl)methylene)-3-methyl-5-oxo-4,5-dihydro-1H-pyrazol-1-yl)benzoic acid] | 3 µM and 7.5 µM and 11 µM |

Further lines, results first:

| IC50 | SMILES |
| --- | --- |
| 36 µM | CC1=NN(c2cccc(C(=O)O)c2)C(=O)/C1=C\c1ccc(-c2ccc(Cl)c(C(=O)NCc3ccccc3)c2)o1 [NG-03-270, (Z)-3-(4-((5-(3-(Benzylcarbamoyl)-4-chlorophenyl)furan-2-yl)methylene)-3-methyl-5-oxo-4,5-dihydro-1H-pyrazol-1-yl)benzoic acid] |
| 38 µM | COc1cccc(CNC(=O)c2cc(-c3ccc(/C=C4\C(=O)N(c5ccc(C(=O)O)cc5)N=C4C)o3)ccc2Cl)c1 [NG-03-286, (Z)-4-(4-((5-(4-Chloro-3-((3-methoxybenzyl)carbamoyl)phenyl)furan-2-yl)methylene)-3-methyl-5-oxo-4,5-dihydro-1H-pyrazol-1-yl)benzoic acid] |
| > 25 µM | CC1=NN(c2cccc(C(=O)O)c2)C(=O)C1Cc1ccc(-c2ccc(Cl)c(C(=O)NCc3ccc(F)cc3)c2)o1 (stereo not drawn) [NG-01-65, 3-(4-((5-(4-Chloro-3-((4-fluorobenzyl)carbamoyl)phenyl)furan-2-yl)methyl)-3-methyl-5-oxo-4,5-dihydro-1H-pyrazol-1-yl)benzoic acid] |
| 45 µM | COc1cccc(NC(=O)c2cc(-c3ccc(CC4C(=O)N(c5ccc(C(=O)O)cc5)N=C4C)s3)ccc2Cl)c1 (stereo not drawn) [NG-03-238, 4-(4-((5-(4-Chloro-3-((3-methoxyphenyl)carbamoyl)phenyl)thiophen-2-yl)methyl)-3-methyl-5-oxo-4,5-dihydro-1H-pyrazol-1-yl)benzoic acid] |
| 40 µM | O=C(O)c1cccc(N2N=C(C(F)(F)F)C(Cc3ccc(-c4ccc(Cl)c(C(=O)NCC5CC5)c4)o3)C2=O)c1 (stereo not drawn) [NG-04-309, 3-(4-((5-(4-chloro-3-((cyclopropylmethyl)carbamoyl)phenyl)furan-2-yl)methyl)-5-oxo-3-(trifluoromethyl)-4,5-dihydro-1H-pyrazol-1-yl)benzoic acid] |
| 40 µM | CC1=NN(c2cccc(C(=O)O)c2)C(=O)C1Cc1ccc(-c2ccc(Cl)c(C(=O)NCC3CC3)c2)s1 (stereo not drawn) [NG-03-231, 3-(4-((5-(4-Chloro-3-((cyclopropylmethyl)carbamoyl)phenyl)thiophen-2-yl)methyl)-3-methyl-5-oxo-4,5-dihydro-1H-pyrazol-1-yl)benzoic acid] |
| > 25 µM | CCOC(=O)c1cccc(N2N=C(C)/C(=C/c3ccc(-c4ccc(Cl)c(C(=O)NCc5ccc(F)cc5)c4)o3)C2=O)c1 [Compound 33a, (Z)-Ethyl 3-(4-((5-(4-chloro-3-((4-fluorobenzyl)carbamoyl)phenyl)furan-2-yl)methylene)-3-methyl-5-oxo-4,5-dihydro-1H-pyrazol-1-yl)benzoate] |
| 7 µM | CC1=NN(c2cccc(C(=O)O)c2)C(=O)/C1=C\c1ccc(-c2ccc(Cl)c(C(=O)NCc3ccc(F)cc3)c2)s1 [NG-03-227, (Z)-3-(4-((5-(4-Chloro-3-((4-fluorobenzyl)carbamoyl)phenyl)thiophen-2-yl)methylene)-3-methyl-5-oxo-4,5-dihydro-1H-pyrazol-1-yl)benzoic acid] |
| 40 µM | COc1cccc(CNC(=O)c2cc(-c3ccc(CC4C(=O)N(c5ccc(C(=O)O)cc5)N=C4C)o3)ccc2Cl)c1 (stereo not drawn) [NG-04-294, 4-(4-((5-(4-chloro-3-((3-methoxybenzyl)carbamoyl)phenyl)furan-2-yl)methyl)-3-methyl-5-oxo-4,5-dihydro-1H-pyrazol-1-yl)benzoic acid] |
| 30 µM | COc1cccc(NC(=O)c2cc(-c3ccc(CC4C(=O)N(c5cccc(C(=O)O)c5)N=C4C(F)(F)F)o3)ccc2Cl)c1 (stereo not drawn) [NG-04-322, 3-(4-((5-(4-chloro-3-((3-methoxyphenyl)carbamoyl)phenyl)furan-2-yl)methyl)-5-oxo-3-(trifluoromethyl)-4,5-dihydro-1H-pyrazol-1-yl)benzoic acid] |
| 11 µM | COc1ccc(NC(=O)c2cc(-c3ccc(CC4C(=O)N(c5cccc(C(=O)O)c5)N=C4C)o3)ccc2Cl)cc1OC (stereo not drawn) [NG-03-206, 3-(4-((5-(4-Chloro-3-((3,4-dimethoxyphenyl)carbamoyl)phenyl)furan-2-yl)methyl)-3-methyl-5-oxo-4,5-dihydro-1H-pyrazol-1-yl)benzoic acid] |
| 12 µM | COc1cccc(NC(=O)c2cc(-c3ccc(/C=C4\C(=O)N(c5ccc(C(=O)O)cc5)N=C4C)s3)ccc2Cl)c1 [NG-03-236, (Z)-4-(4-((5-(4-Chloro-3-((3-methoxyphenyl)carbamoyl)phenyl)thiophen-2-yl)methylene)-3-methyl-5-oxo-4,5-dihydro-1H-pyrazol-1-yl)benzoic acid] |
| 42 µM | CC1=NN(c2cccc(C(=O)O)c2)C(=O)C1Cc1ccc(-c2ccc(Cl)c(C(=O)NCC3CC3)c2)o1 (stereo not drawn) [NG-01-72R, 3-(4-((5-(4-Chloro-3-((cyclopropylmethyl)carbamoyl)phenyl)furan-2-yl)methyl)-3-methyl-5-oxo-4,5-dihydro-1H-pyrazol-1-yl)benzoic acid] |
| 40 µM | CC1=NN(c2cccc(C(=O)O)c2)C(=O)/C1=C\c1ccc(-c2ccc(Cl)c(C(=O)NCc3ccccc3Cl)c2)o1 [NG-03-271, (Z)-3-(4-((5-(4-chloro-3-((2-chlorobenzyl)carbamoyl)phenyl)furan-2-yl)methylene)-3-methyl-5-oxo-4,5-dihydro-1H-pyrazol-1-yl)benzoic acid] |
| 12.5 µM | COc1cccc(NC(=O)c2cc(-c3ccc(CC4C(=O)N(c5cccc(C(=O)O)c5)N=C4C)s3)ccc2Cl)c1 (stereo not drawn) [NG-03-207, 3-(4-((5-(4-chloro-3-((3-Methoxyphenyl)carbamoyl)phenyl)thiophen-2-yl)methyl)-3-methyl-5-oxo-4,5-dihydro-1H-pyrazol-1-yl)benzoic acid] |
